Data reported in patent US9511073B2, “Aromatic amides and uses thereof” (TAXIS Pharmaceuticals, Inc., priority 2011, dated 2016).
≈ marks a conversion by molar mass, not a printed value.

System: Staphylococcus aureus (Isolate ID ATCC 29213)
Test: Bacterial assay: MIC by broth microdilution or agar dilution (CLSI), S. aureus ATCC 29213
Assay type: cell-based
Conditions: Staphylococcus aureus, ATCC29213, read-out: S. aureus MIC (μg/mL) Activity Range, S. aureus (ATCC29213)
Protocol: Compounds are tested for antimicrobial activity by susceptibility testing in liquid or on solid media. Minimum inhibitory concentrations (MICs) for compounds against each strain are determined by the broth microdilution or agar dilution method according to the guidelines of the Clinical Laboratories and Standards Institute, formerly the National Committee for Clinical Laboratory Standards (Clinical Laboratories and Standards Institute. Methods for Dilution Antimicrobial Susceptibility Tests for Bacteria That Grow Aerobically; Approved Standard—Seventh Edition. Document M7-A7. CLSI, Wayne, Pa., 2006; Clinical Laboratories and Standards Institute). The bacterial strains tested include S. aureus (Staphylococcus aureus (Isolate ID ATCC 29213)) and an FtsZ mutant of this isolate (FtsZ-G196A Staphylococcus aureus (Isolate ID GG/190723/sa/1.2)). Compound MICs were determined to be in the following activity ranges “A” activity≦0.25 μg/mL; “B” activity>0.25 μg/mL-1.0 μg/mL; “C” activity>1.0 μg/mL-16 μg/mL; “D” activity>16 μg/mL and ND=not determined. The bracketed entries indicate entantiomer(s) and their activity.

Row | SMILES | MIC [µg/mL]
1 | C[C@H](O)[C@@H](Oc1ccc(F)c(C(N)=O)c1F)c1nc(-c2ccc(OC(F)F)cc2)c(Br)o1 [Compound 300, 3-((1R,2S)-1-(5-bromo-4-(4-(difluoromethoxy)phenyl)oxazol-2-yl)-2-hydroxypropoxy)-2,6-difluorobenzamide] | < 0.25
2 | NC(=O)c1c(F)ccc(OC(CO)c2scc(-c3ccc(Cl)cc3)[n+]2[O-])c1F (centres unmarked) [Compound 267, 2-(1-(3-carbamoyl-2,4-difluorophenoxy)-2-hydroxyethyl)-4-(4-chlorophenyl)thiazole 3-oxide] | > 16
3 | Cn1c(CNC(=O)OCC(Oc2ccc(F)c(C(N)=O)c2F)c2nc(-c3ccc(C(F)(F)F)cc3)c(Br)o2)nc2ccccc21 (centres unmarked) [Compound 210, 2-(5-bromo-4-(4-(trifluoromethyl)phenyl)oxazol-2-yl)-2-(3-carbamoyl-2,4-difluorophenoxy)ethyl ((1-methyl-1H-benzo[d]imidazol-2-yl)methyl)carbamate] | 0.25 to 1 (≈ 0.36 to 1.44 µM)
4 | CCCc1oc(C(C)Oc2ccc(F)c(C(N)=O)c2F)nc1-c1ccc(OC)cc1 (centres unmarked) [Compound 15] | 0.25 to 1 (≈ 0.6 to 2.4 µM)
5 | Cc1ncccc1CNC(=O)OCC(Oc1ccc(F)c(C(N)=O)c1F)c1nc(-c2ccc(C(F)(F)F)cc2)c(Br)o1 (centres unmarked) [Compound 215, 2-(5-bromo-4-(4-(trifluoromethyl)phenyl)oxazol-2-yl)-2-(3-carbamoyl-2,4-difluorophenoxy)ethyl ((2-methylpyridin-3-yl)methyl)carbamate] | 0.25 to 1 (≈ 0.381 to 1.53 µM)
6 | CC(=O)OCCC(Oc1ccc(F)c(C(N)=O)c1F)c1nc(-c2ccc(C(F)(F)F)cc2)c(Br)o1 (centres unmarked) [Compound 72, 3-(5-bromo-4-(4-(trifluoromethyl)phenyl)oxazol-2-yl)-3-(3-carbamoyl-2,4-difluorophenoxy)propyl acetate] | 1 to 16
7 | COCc1oc([C@@H](CO)Oc2ccc(F)c(C(N)=O)c2F)nc1-c1ccc(OC)cc1 [Compound 304B, (R)-2,6-difluoro-3-(2-hydroxy-1-(5-(methoxymethyl)-4-(4-methoxyphenyl)oxazol-2-yl)ethoxy)benzamide] | 1 to 16 (≈ 2.3 to 36.8 µM)
8 | NC(=O)c1c(F)ccc(OC(CNC(=O)c2ccccn2)c2nc(-c3ccc(C(F)(F)F)cc3)co2)c1F (centres unmarked) [Compound 294, N-(2-(3-carbamoyl-2,4-difluorophenoxy)-2-(4-(4-(trifluoromethyl)phenyl)oxazol-2-yl)ethyl)picolinamide] | > 16
9 | CCCc1nc(C(CO)Oc2ccc(F)c(C(N)=O)c2F)oc1Br (centres unmarked) [Compound 221, 3-(1-(5-bromo-4-propyloxazol-2-yl)-2-hydroxyethoxy)-2,6-difluorobenzamide] | 1 to 16 (≈ 2.47 to 39.5 µM)
10 | NC(=O)c1c(F)ccc(OC(COC(=O)CCC(=O)O)c2nc(-c3ccc(F)cc3F)c(Br)o2)c1F (centres unmarked) [Compound 263, 4-(2-(5-bromo-4-(2,4-difluorophenyl)oxazol-2-yl)-2-(3 carbamoyl-2,4-difluorophenoxy)ethoxy)-4-oxobutanoic acid] | 1 to 16 (≈ 1.74 to 27.8 µM)
11 | NC(=O)c1c(F)ccc(OC(C(N)=O)c2nc(-c3ccc(Cl)cc3)cs2)c1F (centres unmarked) [Compound 40, 3-(2-amino-1-(4-(4-chlorophenyl)thiazol-2-yl)-2-oxoethoxy)-2,6-difluorobenzamide] | 1 to 16 (≈ 2.36 to 37.8 µM)
12 | COc1ccc(-c2csc(C(CO)Oc3ccc(F)c(C(N)=O)c3F)n2)cc1 (centres unmarked) [Compound 259, 2,6-difluoro-3-(2-hydroxy-1-(4-(4-methoxyphenyl)thiazol-2-yl)ethoxy)benzamide] | 1 to 16 (≈ 2.46 to 39.4 µM)
13 | NC(=O)c1c(F)ccc(OC(COC(=O)Nc2nnn[nH]2)c2nc(-c3ccc(C(F)(F)F)cc3)c(Br)o2)c1F (centres unmarked) [Compound 177, 2-(5-bromo-4-(4-(trifluoromethyl)phenyl)oxazol-2-yl)-2-(3-carbamoyl-2,4-difluorophenoxy)ethyl 1H-tetrazol-5-ylcarbamate] | > 16
14 | C=CCc1oc(C(CCC)Oc2ccc(F)c(C(N)=O)c2F)nc1-c1ccc(Cl)cc1 (centres unmarked) [Compound 28] | 1 to 16 (≈ 2.24 to 35.8 µM)
15 | Cn1nccc1CNC(=O)OCC(Oc1ccc(F)c(C(N)=O)c1F)c1nc(-c2ccc(C(F)(F)F)cc2)c(Br)o1 (centres unmarked) [Compound 194, 2-(5-bromo-4-(4-(trifluoromethyl)phenyl)oxazol-2-yl)-2-(3-carbamoyl-2,4-difluorophenoxy)ethyl ((1-methyl-1H-pyrazol-5-yl)methyl)carbamate] | < 0.25
16 | NC(=O)c1c(F)ccc(OC(CO)c2nc(-c3ccc(C(F)(F)F)cc3)oc2Br)c1F (centres unmarked) [Compound 138, 3-(1-(5-bromo-2-(4-(trifluoromethyl)phenyl)oxazol-4-yl)-2-hydroxyethoxy)-2,6-difluorobenzamide] | 1 to 16 (≈ 1.97 to 31.5 µM)

Row | SMILES | MIC [µg/mL]
17 | Cc1ccc(-c2nc(C(CO)Oc3ccc(F)c(C(N)=O)c3F)oc2Br)cn1 (centres unmarked) [Compound 231, 3-(1-(5-bromo-4-(6-methylpyridin-3-yl)oxazol-2-yl)-2-hydroxyethoxy)-2,6-difluorobenzamide] | > 16
18 | CC(=O)OCC(Oc1ccc(F)c(C(N)=O)c1F)c1nc(-c2ccc(C(F)(F)F)cc2)sc1Br (centres unmarked) [Compound 130, 2-(5-bromo-2-(4-(trifluoromethyl)phenyl)thiazol-4-yl)-2-(3-carbamoyl-2,4-difluorophenoxy)ethyl acetate] | > 16
19 | NC(=O)c1c(F)ccc(OC(CC(CO)CO)c2nc(-c3ccc(C(F)(F)F)cc3)c(Br)o2)c1F (centres unmarked) [Compound 139, 3-(1-(5-bromo-4-(4-(trifluoromethyl)phenyl)oxazol-2-yl)-4-hydroxy-3-(hydroxymethyl)butoxy)-2,6-difluorobenzamide] | 1 to 16 (≈ 1.77 to 28.3 µM)
20 | CCOC(=O)C(Oc1ccc(F)c(C(N)=O)c1F)c1nc(-c2ccc(Cl)cc2)co1 (centres unmarked) [Compound 6, ethyl 2-(3-carbamoyl-2,4-difluorophenoxy)-2-(4-(4-chlorophenyl)oxazol-2-yl)acetate] | 1 to 16 (≈ 2.29 to 36.6 µM)
21 | NC(=O)c1c(F)ccc(OC(CO)c2nc(-c3ccc(C(F)(F)F)cn3)c(Br)o2)c1F (centres unmarked) [Compound 79, 3-(1-(5-bromo-4-(5-(trifluoromethyl)pyridin-2-yl)oxazol-2-yl)-2-hydroxyethoxy)-2,6-difluorobenzamide] | 1 to 16 (≈ 1.97 to 31.5 µM)
22 | CC(=O)OCC(Oc1ccc(F)c(C(N)=O)c1F)c1nc(-c2ccc(C(F)(F)F)cc2)c(Cl)o1 (centres unmarked) [Compound 42, 2-(3-carbamoyl-2,4-difluorophenoxy)-2-(5-chloro-4-(4-(trifluoromethyl)phenyl)oxazol-2-yl)ethyl acetate] | 0.25 to 1
23 | Cc1nc(C)c(-c2nc(C(CO)Oc3ccc(F)c(C(N)=O)c3F)oc2Br)s1 (centres unmarked) [Compound 245, 3-(1-(5-bromo-4-(2,4-dimethylthiazol-5-yl)oxazol-2-yl)-2-hydroxyethoxy)-2,6-difluorobenzamide] | > 16
24 | NC(=O)c1c(F)ccc(O[C@H](CO)c2nc(-c3ccc(C(=O)N4CCOCC4)cc3)c(Br)o2)c1F [Compound 255B, (R)-3-(1-(5-bromo-4-(4-(morpholine-4-carbonyl)phenyl)oxazol-2-yl)-2-hydroxyethoxy)-2,6-difluorobenzamide] | > 16
25 | NC(=O)c1c(F)ccc(OC(C(=O)O)c2csc(-c3ccc(C(F)(F)F)cc3)n2)c1F (centres unmarked) [Compound 127, 2-(3-carbamoyl-2,4-difluorophenoxy)-2-(2-(4-(trifluoromethyl)phenyl)thiazol-4-yl)acetic acid] | > 16
26 | CS(=O)(=O)NCC(Oc1ccc(F)c(C(N)=O)c1F)c1nc(-c2ccc(C(F)(F)F)cc2)co1 (centres unmarked) [Compound 284, 2,6-difluoro-3-(2-(methylsulfonamido)-1-(4-(4-(trifluoromethyl)phenyl)oxazol-2-yl)ethoxy)benzamide] | > 16
27 | COCCn1cnnc1CNC(=O)OCC(Oc1ccc(F)c(C(N)=O)c1F)c1nc(-c2ccc(C(F)(F)F)cc2)c(Br)o1 (centres unmarked) [Compound 206, 2-(5-bromo-4-(4-(trifluoromethyl)phenyl)oxazol-2-yl)-2-(3-carbamoyl-2,4-difluorophenoxy)ethyl ((4-(2-methoxyethyl)-4H-1,2,4-triazol-3-yl)methyl)carbamate] | 1 to 16 (≈ 1.45 to 23.2 µM)
28 | CNCCNC(=O)OCC(Oc1ccc(F)c(C(N)=O)c1F)c1nc(-c2ccc(C(F)(F)F)cc2)c(Br)o1 (centres unmarked) [Compound 154, 2-(5-bromo-4-(4-(trifluoromethyl)phenyl)oxazol-2-yl)-2-(3-carbamoyl-2,4-difluorophenoxy)ethyl (2-(methylamino)ethyl)carbamate] | 1 to 16 (≈ 1.65 to 26.3 µM)
29 | NC(=O)c1c(F)ccc(OC(COP(=O)(O)O)c2nc(-c3ccc(C(F)(F)F)cc3)c(Br)o2)c1F (centres unmarked) [Compound 81, 2-(5-bromo-4-(4-(trifluoromethyl)phenyl)oxazol-2-yl)-2-(3-carbamoyl-2,4-difluorophenoxy)ethyl dihydrogen phosphate] | 0.25 to 1
30 | C=CCC(Oc1ccc(F)c(C(N)=O)c1F)c1nc(-c2ccc(C(F)(F)F)cc2)c(Br)o1 (centres unmarked) [Compound 106, 3-((1-(5-bromo-4-(4-(trifluoromethyl)phenyl)oxazol-2-yl)but-3-en-1-yl)oxy)-2,6-difluorobenzamide] | 1 to 16 (≈ 1.93 to 30.9 µM)
31 | NC(=O)c1c(F)ccc(OC(COC(=O)CN2C(=O)c3ccccc3C2=O)c2nc(-c3ccc(C(F)(F)F)cc3)c(Br)o2)c1F (centres unmarked) [Compound 60, 2-(5-bromo-4-(4-(trifluoromethyl)phenyl)oxazol-2-yl)-2-(3-carbamoyl-2,4-difluorophenoxy)ethyl 2-(1,3-dioxoisoindolin-2-yl)acetate] | 0.25 to 1 (≈ 0.36 to 1.44 µM)
32 | COc1ccc(CNC(=O)OCC(Oc2ccc(F)c(C(N)=O)c2F)c2nc(-c3ccc(C(F)(F)F)cc3)c(Br)o2)cn1 (centres unmarked) [Compound 208, 2-(5-bromo-4-(4-(trifluoromethyl)phenyl)oxazol-2-yl)-2-(3-carbamoyl-2,4-difluorophenoxy)ethyl ((6-methoxypyridin-3-yl)methyl)carbamate] | 0.25 to 1 (≈ 0.372 to 1.49 µM)
